Tests used:
HiBit-KRAS^G12C [1] = target: T1, HiBit-KRAS^G12C (Homo sapiens, UniProt P01116, G12C); experiment: HiBit degradation assay in MiaPaCa-2 HiBit-KRas^G12C cells; type: cell-based; details: 24 hours; for Dmax: MIA PaCa-2, MiaPaCa-2 HiBit-KRas^G12C cells
Outline: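 MiaPaCa-2 cells with CRISPR N-terminal HiBit knock-in on one endogenous KRAS^G12C allele, treated 24 hours at 37° C with compound titrated 10 μM to 20 nM (0.1% or 0.5% DMSO). Lytic HiBit luminescence normalized to DMSO, 4-parameter fit giving DC50 and Dmax; points cytotoxic to […] cells by alamar blue excluded.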

HiBit-KRAS^G12C [2] = target: T1, HiBit-KRAS^G12C; experiment: HiBit degradation assay in SW1573 HiBit-KRas^G12C cells; type: cell-based; set-up: expressed in transfected cells; host or cells: SW1573 (clone E6), modified pcDNA3.1 vector, TK promoter; details: 24 hours; for DC50: read-out: KRas^G12C-HIBit (SW1573; 0.1% DMSO) DC50*
Outline: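 SW1573 cells stably expressing N-terminally HiBit-tagged KRAS G12C, under the TK promoter, were treated 24 h at 37 °C with 10 μM to 20 nM compound in 0.1% or 0.5% DMSO. Residual HiBit luminescence normalised to DMSO and fitted with a 4-parameter model for DC50 and Dmax. Points with ≥50% viability loss (alamar blue) excluded.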

[3] = 0.1% DMSO, maximum degradation, read-out: KRas^G12C-HiBiT (MiaPaCa; 0.1% DMSO) DMax
[4] = 0.5% DMSO, maximum degradation, read-out: KRas^G12C-HiBiT (MiaPaCa; 0.5% DMSO) DMax
[5] = SW1573, SW1573 HiBit-KRas^G12C, 0.1% DMSO, read-out: KRas^G12C-HiBit (SW1573; 0.1% DMSO) Dmax**
[6] = SW1573, SW1573 HiBit-KRas^G12C, 0.5% DMSO, read-out: KRas^G12C-HiBiT (SW1573; 0.5% DMSO) Dmax**
[7] = SW1573 HiBit-KRas^G12C, 0.1% DMSO

T1 sequence (P01116 1-186 isoform P01116-2 G12C limits assumed): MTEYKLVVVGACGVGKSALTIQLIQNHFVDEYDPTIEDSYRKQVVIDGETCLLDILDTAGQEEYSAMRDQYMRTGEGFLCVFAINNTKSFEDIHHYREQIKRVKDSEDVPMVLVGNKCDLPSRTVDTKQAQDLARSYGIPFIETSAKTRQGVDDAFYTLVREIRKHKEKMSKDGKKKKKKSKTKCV

C=C(F)C(=O)N1CCN(c2nc(OCCN3CCC(OCCOc4cc([C@H](C(=O)N5C[C@H](O)C[C@H]5C(=O)N[C@@H](C)c5ccc(-c6scnc6C)cc5)C(C)C)on4)CC3)nc3c(F)c(-c4cc(O)cc5ccccc45)c(Cl)cc23)C[C@@H]1CC#N [Compound 16, (2S,4R)-1-[(2R)-2-{3-[2-({1-[2-({6-chloro-4-[(3S)-3-(cyanomethyl)-4-(2-fluoroprop-2-enoyl)piperazin-1-yl]-8-fluoro-7-(3-hydroxynaphthalen-1-yl)quinazolin-2-yl}oxy)ethyl]piperidin-4-yl}oxy)ethoxy]-1,2-oxazol-5-yl}-3-methylbutanoyl]-4-hydroxy-N-[(1S)-1-[4-(4-methyl-1,3-thiazol-5-yl)phenyl]ethyl]pyrrolidine-2-carboxamide]
Dmax (HiBit-KRAS^G12C [1]; [3]): 35 to 70% | Dmax (HiBit-KRAS^G12C [1]; [4]): > 70% | Dmax (HiBit-KRAS^G12C [2]; [5]): > 70% | Dmax (HiBit-KRAS^G12C [2]; [6]): > 70% | DC50 (HiBit-KRAS^G12C [2]; [7]): 100 to 1000 nM

C=CC(=O)N1CCN(c2nc(OCCN3CCC(COCC(=O)N[C@H](C(=O)N4C[C@H](O)C[C@H]4C(=O)N[C@@H](C)c4ccc(-c5scnc5C)cc4)C(C)(C)C)CC3)nc3c(F)c(-c4cc(O)cc5ccccc45)c(Cl)cc23)C[C@@H]1CC#N [Compound 17, (2S,4R)-1-[(2S)-2-[2-({1-[2-({6-chloro-4-[(3S)-3-(cyanomethyl)-4-(prop-2-enoyl)piperazin-1-yl]-8-fluoro-7-(3-hydroxynaphthalen-1-yl)quinazolin-2-yl}oxy)ethyl]piperidin-4-yl}methoxy)acetamido]-3,3-dimethylbutanoyl]-4-hydroxy-N-[(1S)-1-[4-(4-methyl-1,3-thiazol-5-yl)phenyl]ethyl]pyrrolidine-2-carboxamide]
Dmax (HiBit-KRAS^G12C [1]; [3]): > 70% | KRas^G12C-HiBiT (MiaPaCa; 0.5% DMSO) DMax (HiBit-KRAS^G12C [1]; MiaPaCa-2 HiBit-KRas^G12C cells, 0.5% DMSO, maximum degradation): A (A ≥ 70) | Dmax (HiBit-KRAS^G12C [2]; [5]): 35 to 70% | DC50 (HiBit-KRAS^G12C [2]; [7]): 100 to 1000 nM | KRas^G12C-HiBiT (SW1573; 0.5% DMSO) Dmax** (HiBit-KRAS^G12C [2]; SW1573 HiBit-KRas^G12C, 0.5% DMSO): A (A ≥ 70)

C=CC(=O)N1CCN(c2nc(O[C@H](C)CN3CCC(COc4cc([C@@H](C(=O)N5C[C@H](O)C[C@H]5C(=O)N[C@@H](C)c5ccc(-c6scnc6C)cc5)C(C)C)on4)CC3)nc3c(F)c(-c4cc(O)cc5ccccc45)c(Cl)cc23)CC1 [Compound 20, (2S,4R)-1-[(2S)-2-[3-({1-[(2R)-2-{[6-chloro-8-fluoro-7-(3-hydroxynaphthalen-1-yl)-4-[4-(prop-2-enoyl)piperazin-1-yl]quinazolin-2-yl]oxy}propyl]piperidin-4-yl}methoxy)-1,2-oxazol-5-yl]-3-methylbutanoyl]-4-hydroxy-N-[(1S)-1-[4-(4-methyl-1,3-thiazol-5-yl)phenyl]ethyl]pyrrolidine-2-carboxamide]
Dmax (HiBit-KRAS^G12C [1]; [3]): 35 to 70% | Dmax (HiBit-KRAS^G12C [1]; [4]): 35 to 70% | Dmax (HiBit-KRAS^G12C [2]; [5]): 35 to 70% | Dmax (HiBit-KRAS^G12C [2]; [6]): 35 to 70% | DC50 (HiBit-KRAS^G12C [2]; [7]): 100 to 1000 nM

C=CC(=O)N1CCN(c2nc(OCCN3CCC(OCCOc4cc([C@@H](C(=O)N5C[C@H](O)C[C@H]5C(=O)N[C@@H](C)c5ccc(-c6scnc6C)cc5)C(C)C)on4)CC3)nc3c(F)c(-c4cc(O)cc5ccccc45)c(Cl)cc23)C[C@@H]1CC#N [Compound 22, (2S,4R)-1-[(2S)-2-{3-[2-({1-[2-({6-chloro-4-[(3S)-3-(cyanomethyl)-4-(prop-2-enoyl)piperazin-1-yl]-8-fluoro-7-(3-hydroxynaphthalen-1-yl)quinazolin-2-yl}oxy)ethyl]piperidin-4-yl}oxy)ethoxy]-1,2-oxazol-5-yl}-3-methylbutanoyl]-4-hydroxy-N-[(1S)-1-[4-(4-methyl-1,3-thiazol-5-yl)phenyl]ethyl]pyrrolidine-2-carboxamide]
Dmax (HiBit-KRAS^G12C [1]; [3]): < 35% | Dmax (HiBit-KRAS^G12C [2]; [5]): < 35% | DC50 (HiBit-KRAS^G12C [2]; [7]): 100 to 1000 nM

C=C(F)C(=O)N1CCN(c2nc(O[C@H](C)CN3CCC(COCC(=O)N[C@H](C(=O)N4C[C@H](O)C[C@H]4C(=O)N[C@@H](C)c4ccc(-c5scnc5C)cc4)C(C)(C)C)CC3)nc3c2CCN(c2cc(O)cc4ccccc24)C3)C[C@@H]1CC#N [Compound 24, (2S,4R)-1-[(2S)-2-[2-({1-[(2R)-2-({4-[(3S)-3-(cyanomethyl)-4-(2-fluoroprop-2-enoyl)piperazin-1-yl]-7-(3-hydroxynaphthalen-1-yl)-5H,6H,7H,8H-pyrido[3,4-d]pyrimidin-2-yl}oxy)propyl]piperidin-4-yl}methoxy)acetamido]-3,3-dimethylbutanoyl]-4-hydroxy-N-[(1S)-1-[4-(4-methyl-1,3-thiazol-5-yl)phenyl]ethyl]pyrrolidine-2-carboxamide]
Dmax (HiBit-KRAS^G12C [1]; [3]): < 35% | Dmax (HiBit-KRAS^G12C [2]; [5]): < 35% | DC50 (HiBit-KRAS^G12C [2]; [7]): > 1000 nM

C=CC(=O)N1CCN(c2nc(OCCCN3CCC(OCC(=O)N[C@H](C(=O)N4C[C@H](O)C[C@H]4C(=O)N[C@@H](C)c4ccc(-c5scnc5C)cc4)C(C)(C)C)CC3)nc3c(F)c(-c4cc(O)cc5ccccc45)c(Cl)cc23)CC1 [Compound 25, (2S,4R)-1-[(2S)-2-(2-{[1-(3-{[6-chloro-8-fluoro-7-(3-hydroxynaphthalen-1-yl)-4-[4-(prop-2-enoyl)piperazin-1-yl]quinazolin-2-yl]oxy}propyl)piperidin-4-yl]oxy}acetamido)-3,3-dimethylbutanoyl]-4-hydroxy-N-[(1S)-1-[4-(4-methyl-1,3-thiazol-5-yl)phenyl]ethyl]pyrrolidine-2-carboxamide]
Dmax (HiBit-KRAS^G12C [1]; [3]): < 35% | Dmax (HiBit-KRAS^G12C [2]; [5]): 35 to 70% | DC50 (HiBit-KRAS^G12C [2]; [7]): 100 to 1000 nM

C=CC(=O)N1CCN(c2nc(O[C@H](C)CN3CCN(CC4CN(CC(=O)N[C@H](C(=O)N5C[C@H](O)C[C@H]5C(=O)N[C@@H](C)c5ccc(-c6scnc6C)cc5)C(C)(C)C)C4)CC3)nc3c(F)c(-c4cc(O)cc5ccccc45)c(Cl)cc23)CC1 [Compound 28, (2S,4R)-1-[(2S)-2-{2-[3-({4-[(2R)-2-{[6-chloro-8-fluoro-7-(3-hydroxynaphthalen-1-yl)-4-[4-(prop-2-enoyl)piperazin-1-yl]quinazolin-2-yl]oxy}propyl]piperazin-1-yl}methyl)azetidin-1-yl]acetamido}-3,3-dimethylbutanoyl]-4-hydroxy-N-[(1S)-1-[4-(4-methyl-1,3-thiazol-5-yl)phenyl]ethyl]pyrrolidine-2-carboxamide]
DC50 (HiBit-KRAS^G12C [1]; read-out: KRas^G12C-HiBiT (MiaPaCa; 0.1% DMSO) IC50, MiaPaCa-2 HiBit-KRas^G12C cells, 0.1% DMSO): > 1000 nM | Dmax (HiBit-KRAS^G12C [2]; SW1573, read-out: KRas^G12C-HiBit (SW1573; 0.1% DMSO) Dmax**, SW1573 HiBit-KRas^G12C, 0.1% DMSO): < 35% | DC50 (HiBit-KRAS^G12C [2]; [7]): 100 to 1000 nM

C=CC(=O)N1CCN(c2nc(O[C@H](C)CN3CCC(COCC(=O)N[C@H](C(=O)N4C[C@H](O)C[C@H]4C(=O)N[C@@H](C)c4ccc(-c5scnc5C)cc4)C(C)(C)C)CC3)nc3c2CCN(c2cc(O)cc4ccccc24)C3)C[C@@H]1CC#N [Compound 29, (2S,4R)-1-[(2S)-2-[2-({1-[(2R)-2-({4-[(3S)-3-(cyanomethyl)-4-(prop-2-enoyl)piperazin-1-yl]-7-(3-hydroxynaphthalen-1-yl)-5H,6H,7H,8H-pyrido[3,4-d]pyrimidin-2-yl}oxy)propyl]piperidin-4-yl}methoxy)acetamido]-3,3-dimethylbutanoyl]-4-hydroxy-N-[(1S)-1-[4-(4-methyl-1,3-thiazol-5-yl)phenyl]ethyl]pyrrolidine-2-carboxamide]
Dmax (HiBit-KRAS^G12C [1]; [3]): 35 to 70% | Dmax (HiBit-KRAS^G12C [1]; [4]): 35 to 70% | Dmax (HiBit-KRAS^G12C [2]; [5]): 35 to 70% | Dmax (HiBit-KRAS^G12C [2]; [6]): 35 to 70% | DC50 (HiBit-KRAS^G12C [2]; [7]): > 1000 nM

C=CC(=O)N1CCN(c2nc(O[C@H](C)CN3CCC(OCCOCC(=O)N[C@H](C(=O)N4C[C@H](O)C[C@H]4C(=O)N[C@@H](C)c4ccc(-c5scnc5C)cc4)C(C)(C)C)CC3)nc3c2CCN(c2cc(O)cc4ccccc24)C3)C[C@@H]1CC#N [Compound 31, (2S,4R)-1-[(2S)-2-{2-[2-({1-[(2R)-2-({4-[(3S)-3-(cyanomethyl)-4-(prop-2-enoyl)piperazin-1-yl]-7-(3-hydroxynaphthalen-1-yl)-5H,6H,7H,8H-pyrido[3,4-d]pyrimidin-2-yl}oxy)propyl]piperidin-4-yl}oxy)ethoxy]acetamido}-3,3-dimethylbutanoyl]-4-hydroxy-N-[(1S)-1-[4-(4-methyl-1,3-thiazol-5-yl)phenyl]ethyl]pyrrolidine-2-carboxamide]
Dmax (HiBit-KRAS^G12C [1]; [3]): < 35% | Dmax (HiBit-KRAS^G12C [1]; [4]): < 35% | Dmax (HiBit-KRAS^G12C [2]; [5]): 35 to 70% | Dmax (HiBit-KRAS^G12C [2]; [6]): 35 to 70% | DC50 (HiBit-KRAS^G12C [2]; [7]): > 1000 nM

Source: patent US20220370416A1, “COMPOUNDS AND METHODS FOR TARGETED DEGRADATION OF KRAS” (Arvinas Operations, Inc., priority 2020, published 2022)
